In EPA's ToxValDB 9.5 (doi:10.2903/j.efsa.2008.177r):
Values after ≈ are worked out from the molar mass of the structure shown.

Experiments:
[1] = tested on: Rattus norvegicus; settings: for LD50: mortality
[2] = tested on: Colinus virginianus; settings: for LD50: acute, oral, mortality; for NOEL: reproduction developmental
[3] = tested on: Aphidius rhopalosiphi; test: LR50; higher = less toxic; settings: acute; duration: 48 hours; mortality
[4] = tested on: Typhlodromus pyri; test: LR50; higher = less toxic; settings: acute; duration: 14 days; mortality
[5] = tested on: Plant; settings: not reported; seedling emergence
[6] = tested on: Leuciscus idus; settings: acute; duration: 96 hours; mortality
[7] = tested on: Apis mellifera; settings: acute; duration: 48 hours; dermal; mortality
[8] = tested on: Bibionidae; settings: chronic/long-term; duration: 28 days
[9] = tested on: Tagia sp.
[10] = tested on: Daphnia magna; settings: chronic/long-term; duration: 21 days; reproduction
[11] = tested on: Oncorhynchus mykiss; settings: chronic/long-term; duration: 28 days; growth

NC(Cc1ncn[nH]1)C(=O)O (centres undefined) [1,2,4-Triazole-3-alanine]
LD50 ([1]; acute, oral): > 5000 mg/kg-day
LD50 ([2]; diet): 1310 mg/kg-day
LD50 [2]: > 5000 mg/kg-day

c1nc[nH]n1 [1H-1,2,4-Triazole]
LD50 ([1]; acute, oral): 1650 mg/kg-day

CC(C)(C)C(=O)C(Oc1ccc(Cl)cc1)n1cncn1 (centres undefined) [Triadimefon]
NOEL [2]: 43.5 mg/kg-day

CC(C)(C)C(O)C(Oc1ccc(Cl)cc1)n1cncn1 (centres undefined) [Triadimenol]
LR50 [3]: > 1250 g/ha
LR50 [4]: > 1250 g/ha
LEL [5]: 125 g/ha
LD50 ([1]; acute, oral, M): 689 mg/kg-day
NOAEL ([1]; acute, oral, clinical signs): 2 mg/kg-day
NOAEL ([1]; chronic, duration: 2 years, organ weight): 5 mg/kg-day
NOEL ([1]; reproduction developmental, M, growth): 8.88 mg/kg-day
NOAEL ([1]; reproduction developmental, body weight): 6 mg/kg-day
NOAEL ([1]; subchronic, clinical signs): 3.4 mg/kg-day
LC50 [6]: 17.4 µg/mL (≈ 58.8 µM)
LD50 [7]: > 200 µg/piece
NOEC [8]: 0.1 mg/L
LC50 ([9]; acute, mortality): 781 mg/kg
NOEC ([9]; chronic/long-term): 100 mg/kg
NOEC [10]: 0.1 mg/L
NOEC [11]: 3.13 mg/L
LD50 ([2]; diet): > 705 mg/kg-day
LD50 [2]: > 2000 mg/kg-day
NOEL [2]: 7.5 mg/kg-day
